What was measured:
[1] = tested on: E. coli; experiment: bulk qPCR/HRMA antibiotic susceptibility test (growth by 16S rDNA Cq); type: cell-based, Escherichia coli; settings: for Cq value compared to the no-drug (growth) controls: 2 hours of incubation with gentamicin (1 μg/mL, FIG. 6A)
Procedure: (§1) FIG. 1 illustrates a protocol for combined ID (Identification of pathogen species) and AST (antibiotic susceptibility test) in bulk format. The protocol begins by dividing the sample into 2 portions; with and without antibiotic followed by brief incubation. Then, the cultured samples are added into PCR mixture to perform qPCR & HRMA. An additional step of DNA isolation may be performed prior to PCR. AST is determined based on Cq differences (ΔCq) and ID is obtained from HRMA based classification.
FIG. 5A-5B illustrates the comparison between the proposed AST approaches to conventional broth microdilutional method. […] (b) Conventional broth microdilutional method of the same drug concentration with overnight incubation.
FIG. 6A-6C illustrates an integrated broad-scale pathogen identification and growth detection via qPCR and HRMA. (a) Measurement of bacterial growth of E. coli and S. aureus under treatment of gentamicin (1 μg/mL) via qPCR detection of 16S rDNA. The growth status and antibiotic susceptibility of bacteria were determined by comparing the Cq value to the no-drug control. (b) Measured melt curves from amplicons of E. coli and S. aureus for both sensitive and resistant strands. […]
(§2) The inventors have designed an assay protocol to enable combined ID and AST into a single step process (FIG. 1) and using the whole blood sample as an example (FIG. 4). […] The subsequent translation to the microfluidic single-cell assay in described below can facilitate digital diagnostics with enhanced sensitivity, specificity and quantification capability.
The present invention measures bacterial growth by quantifying the bacterial DNA content using qPCR. […] When performing AST, the sample from culture tubes are added to PCR mixes immediately after brief bacterial culture for subsequent detection and quantification of bacterial DNA via qPCR. The quantification cycle (Cq) value indicates the difference in growth rate of different strains under the drug treatment; thereby the antibiotic susceptibility can be determined. […]

[2] = tested on: S. aureus; experiment: as above; type: cell-based, Staphylococcus aureus; settings: 2 hours of incubation with gentamicin (1 μg/mL, FIG. 6A)
Procedure: as §1
FIG. 6A-6C illustrates an integrated broad-scale pathogen identification and growth detection via qPCR and HRMA. […] The growth status and antibiotic susceptibility of bacteria were determined by comparing the Cq value to the no-drug control. (b) Measured melt curves from amplicons of E. coli and S. aureus for both sensitive and resistant strands. […]
as §2
The present invention measures bacterial growth by quantifying the bacterial DNA content using qPCR. […]

[3] = tested on: S. aureus; experiment: digital PCR/HRMA AST of mixed sample in 96-well plate; type: cell-based, Staphylococcus aureus; settings: sensitive strain in mix with E. faecalis; 2 hours with and without 8 μg/mL of gentamicin; DNA diluted 60000-fold
Procedure: (§3) FIG. 2 illustrates a protocol for combined ID and AST using digital detection. The protocol begins by dividing the sample into 2 portions; with and without antibiotic followed by brief incubation. DNA isolation can be performed to extract bacterial DNA from the samples. Then, the samples are mixed with PCR mixture and diluted across very large number of isolated small volume reactions so that there is either zero or one bacterial DNA present in any individual reaction to perform digital PCR & digital HRMA. ID is obtained from HRMA based classification on each positive reactions. AST of each target bacterial species is determined by comparing the quantity of the DNA of the target bacteria from the 2 portions which indicates by the total number of positive identification associated to the identified target bacteria species.
(§4) FIG. […] Orange lines represent S. aureus and blue lines represent E. faecalis. (a) Melt curves from the sample incubated without gentamicin (b) Melt curves from the sample incubated with gentamicin (c) AST can be determined using absolute count of each species which bases on the total number of positive reactions of each specific melt curve from HRMA.
(§5) This method (FIG. 2) begins by splitting the sample to incubate with and without antibiotic. […] The species of unidentified bacteria in each positive reactions is then determined preferably using HRMA. […]

[4] = tested on: E. faecalis; experiment: as above; type: cell-based, Enterococcus faecalis; settings: sensitive strain in mix with S. aureus; 2 hours with and without 8 μg/mL of gentamicin; DNA diluted 60000-fold
Procedure: as §3, §4, §5

gentamicin
MIC range by ΔCq approach ([1]; E. coli sensitive strain, gentamicin 0.125-8 μg/mL, FIG. 5): corresponds to standard CLSI MIC value and the conventional method
Cq value compared to the no-drug (growth) controls ([1]; resistant strand of E. coli): close to the no-drug controls
Cq value compared to the no-drug (growth) controls ([1]; sensitive strand of E. coli): increased Cq value
Cq value compared to the no-drug (growth) controls ([2]; resistant strand of S. aureus): close to the no-drug controls
Cq value compared to the no-drug (growth) controls ([2]; sensitive strand of S. aureus): increased Cq value
count of no-gentamicin controls greater than gentamicin-treated samples [3]: 3-5 folds
count of no-gentamicin controls greater than gentamicin-treated samples [4]: 3-5 folds

Source: patent publication US20240368710A1, “STREAMLINED PLATFORM FOR BACTERIAL IDENTIFICATION AND ANTIBIOTIC SUSCEPTIBILITY TEST” (THE JOHNS HOPKINS UNIVERSITY, priority 2017, published 2024)
